Test results: US20260166039A1 (SCHRÖDINGER, INC., priority 2022, published 2026)
Read-outs that look alike come from different tables or passages of the source.

Experiments:
Wee1 kinase domain = biological target: T1, Wee1 kinase domain (Homo sapiens, UniProt P30291); test: Wee1 Kinase Biochemical Assay (ADP-Glo); conditions: 15 uM ATP
T1 construct: Wee1 kinase domain was purchased from Carna (catalog #05-177); purchased Carna 05-177
Method in brief: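 Poly(Lys,Tyr 4:1) phosphorylation by the kinase domain is followed as ADP output (ADP-Glo) after 4 h at 25 °C, with ATP at 15 uM. Values are percent inhibition between vehicle and full-inhibition controls.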

[1] = tested on: phosphorylation of Cdc2 Y15 (Wee1 substrate) in A427 cells; test: Phosphorylated Cdc2 MSD Electrochemiluminescence Assay; assay type: cell-based; conditions: Homo sapiens
Method in brief: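 A427 cells (RPMI 1640, 10% FBS) treated 20 h after plating with 3-fold serial compound dilutions, in duplicate, 37 °C, 5% CO2; total incubation 6 h. Lysate Cdc2 pY15 read by MSD electrochemiluminescence sandwich immunoassay; % remaining signal normalised to DMSO (high) and reference Wee1 inhibitor (low) controls.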

[2] = class symbols, 1 nM Wee1 enzyme, 4 hours at 25° C.
[3] = A-427, class symbols, read-out: A427 pCDC2 MSD IC50

T1 sequence (P30291 299-569 limits assumed): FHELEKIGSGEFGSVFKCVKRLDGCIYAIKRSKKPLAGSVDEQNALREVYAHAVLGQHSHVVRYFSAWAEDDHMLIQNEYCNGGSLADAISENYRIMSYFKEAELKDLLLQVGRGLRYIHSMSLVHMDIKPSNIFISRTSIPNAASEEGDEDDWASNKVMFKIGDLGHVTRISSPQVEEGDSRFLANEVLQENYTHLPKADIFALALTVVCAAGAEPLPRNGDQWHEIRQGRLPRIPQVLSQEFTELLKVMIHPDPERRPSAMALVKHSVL

SMILES | IC50 (Wee1 kinase domain; Wee1 kinase domain, ADP-Glo) [nM] | IC50 ([1]; A-427, pCDC2 MSD) [nM] | IC50 (Wee1 kinase domain; [2]) [nM] | IC50 [1, 3] [nM] | further results
C[C@H]1COC(=O)N1c1cccc(N2c3nc(Nc4ccc(O[C@H]5CCN(C)C5)cc4)ncc3[C@@]3(C)COC(C)(C)C[C@@H]23)n1 (single isomer, unassigned) [Example 333] | < 10 | 100 to 1000 | – | – | –
CN1CCC(n2cc(Nc3ncc4c(n3)N(c3cccc(N=S(C)(C)=O)n3)[C@@H]3CC(C)(C)OC[C@]43C)cn2)CC1 (single isomer, unassigned) [Example 102] | < 10 | 100 to 1000 | – | – | –
CN1CC[C@H](Oc2ccc(Nc3ncc4c(n3)N(c3cccc(C(C)(C)O)n3)[C@@H]3CC(C)(C)OC[C@]43C)cc2)C1 (single isomer, unassigned) [Example 421] | – | – | < 10 | < 100 | –
CN1CCC(n2ccc(Nc3ncc4c(n3)N(c3cccc(N=S(C)(C)=O)n3)[C@@H]3CC(C)(C)OC[C@]43C)cc2=O)CC1 [Example 152, 4-(((4bR,8aR)-9-(6-((dimethyl(oxo)-16-sulfaneylidene)amino)pyridin-2-yl)-4b,7,7-trimethyl-4b,5,7,8,8a,9-hexahydropyrano[3′,4′:4,5]pyrrolo[2,3-d]pyrimidin-2-yl)amino)-1-(1-methylpiperidin-4-yl)pyridin-2(1H)-one] | < 10 | 100 to 1000 | – | – | –
C[C@H]1COC(=O)N1c1cccc(N2c3nc(Nc4cnn(C5CCNCC5)c4)ncc3[C@@]3(C)COC(C)(C)C[C@@H]23)n1 (single isomer, unassigned) [Example 255] | < 10 | 100 to 1000 | – | – | –
C[C@H]1COC(=O)N1c1cccc(N2c3nc(Nc4ccc([C@@H]5CCN(C)C5)cc4)ncc3[C@@]3(C)COC(C)(C)C[C@@H]23)n1 (single isomer, unassigned) [Example 305] | < 10 | 100 to 1000 | – | – | –
Cn1ccc(Nc2ncc3c(n2)N(c2cccc(N=S(C)(C)=O)n2)[C@@H]2CC(C)(C)OC[C@]32C)cc1=O (single isomer, unassigned) [Example 363] | < 10 | 100 to 1000 | – | – | –
CN(C)Cc1cccc(N2c3nc(Nc4ccc(N5CCOCC5)cc4)ncc3[C@@]3(C)COC(C)(C)C[C@@H]23)n1 (single isomer, unassigned) [Example 523] | – | – | < 10 | 100 to 1000 | –
C[C@H]1CN(c2ccc(Nc3ncc4c(n3)N(c3cccc(N5C(=O)OC[C@@H]5C)n3)[C@@H]3CC(C)(C)OC[C@]43C)cc2)CCN1C (single isomer, unassigned) [Example 315] | < 10 | 100 to 1000 | – | – | –
C[C@H]1COC(=O)N1c1cccc(N2c3nc(Nc4ccc(N5C[C@H]6C[C@@H]5CN6)cc4)ncc3[C@@]3(C)COC(C)(C)C[C@@H]23)n1 (single isomer, unassigned) [Example 277] | < 10 | 100 to 1000 | – | – | –
C[C@H]1COC(=O)N1c1cccc(N2c3nc(Nc4ccc(C5CCN(C)CC5)cc4)ncc3[C@@]3(C)COC(C)(C)C[C@@H]23)n1 (single isomer, unassigned) [Example 251] | < 10 | 100 to 1000 | – | – | –
CN1CC[C@H](Oc2ccc(Nc3ncc4c(n3)N(c3cccc(N5CCCC5=O)n3)[C@@H]3CC(C)(C)OC[C@]43C)cc2)C1 [Example 618, 1-(6-((4bR,8aR)-4b,7,7-trimethyl-2-((4-(((S)-1-methylpyrrolidin-3-yl)oxy)phenyl)amino)-4b,7,8,8a-tetrahydropyrano[3′,4′:4,5]pyrrolo[2,3-d]pyrimidin-9(5H)-yl)pyridin-2-yl)pyrrolidin-2-one] | – | – | < 10 | < 100 | –
CN1CC[C@H](c2ccc(Nc3ncc4c(n3)N(c3cccc(N=S(C)(C)=O)n3)[C@@H]3CC(C)(C)OC[C@]43C)cc2)C1 (single isomer, unassigned) [Example 133] | < 10 | 100 to 1000 | – | – | –
CN1CCN(c2ccc(Nc3ncc4c(n3)N(c3ccn(C5COC5)n3)[C@@H]3CC(C)(C)OC[C@]43C)cc2)CC1 (single isomer, unassigned) [Example 742] | – | – | < 10 | 1000 to 10000 | –
Cc1cc(Nc2ncc3c(n2)N(c2cccc(N4CCCC4=O)n2)[C@@H]2CC(C)(C)OC[C@]32C)ccc1N1C[C@@H]2C[C@H]1CN2C [Example 652, 1-(6-((4bR,8aR)-4b,7,7-trimethyl-2-((3-methyl-4-((1S,4S)-5-methyl-2,5-diazabicyclo[2.2.1]heptan-2-yl)phenyl)amino)-4b,7,8,8a-tetrahydropyrano[3′,4′:4,5]pyrrolo[2,3-d]pyrimidin-9(5H)-yl)pyridin-2-yl)pyrrolidin-2-one] | – | – | < 10 | 100 to 1000 | –
CNC(=O)c1ccc(Nc2ncc3c(n2)N(c2cccc(N=S(C)(C)=O)n2)[C@@H]2CC(C)(C)OC[C@]32C)cc1F [Example 119, 4-(((4bR,8aR)-9-(6-((dimethyl(oxo)-16-sulfaneylidene)amino)pyridin-2-yl)-4b,7,7-trimethyl-4b,5,7,8,8a,9-hexahydropyrano[3′,4′:4,5]pyrrolo[2,3-d]pyrimidin-2-yl)amino)-2-fluoro-N-methylbenzamide] | < 10 | 100 to 1000 | – | – | –

SMILES | IC50 (Wee1 kinase domain; Wee1 kinase domain, ADP-Glo) [nM] | IC50 ([1]; A-427, pCDC2 MSD) [nM] | IC50 (Wee1 kinase domain; [2]) [nM] | IC50 [1, 3] [nM] | further results
CC1(C)C[C@H]2N(c3cccc(N4CCCC4=O)n3)c3nc(Nc4ccc(C5CNC5)cc4)ncc3[C@@]2(C)CO1 [Example 662, 1-(6-((4bR,8aR)-2-((4-(azetidin-3-yl)phenyl)amino)-4b,7,7-trimethyl-4b,7,8,8a-tetrahydropyrano[3′,4′:4,5]pyrrolo[2,3-d]pyrimidin-9(5H)-yl)pyridin-2-yl)pyrrolidin-2-one] | – | – | < 10 | 100 to 1000 | –
C[C@H]1COC(=O)N1c1cccc(N2c3nc(Nc4ccc(N5C[C@H]6C[C@@H]5CN6C)c(F)c4)ncc3[C@@]3(C)COC(C)(C)C[C@@H]23)n1 (single isomer, unassigned) [Example 291] | < 10 | 100 to 1000 | – | – | –
CNCc1cccc(N2c3nc(Nc4ccc(N5CCOCC5)c(Cl)c4)ncc3[C@@]3(C)COC(C)(C)C[C@@H]23)n1 (single isomer, unassigned) [Example 14] | < 10 | 100 to 1000 | – | – | –
CNCc1ccc(Nc2ncc3c(n2)N(c2cccc(N4C(=O)OC[C@@H]4C)n2)[C@@H]2CC(C)(C)OC[C@]32C)cc1 (single isomer, unassigned) [Example 360] | < 10 | 100 to 1000 | – | – | –
CNC1(c2cccc(N3c4nc(Nc5ccc(C6CCN(C)CC6)c(C)c5)ncc4[C@]4(C)COC(C)(C)C[C@H]34)n2)CC1 (single isomer, unassigned) [Example 574] | – | – | 10 to 100 | 100 to 1000 | –
CN[C@]1(C)CCc2ccc(N3c4nc(Nc5ccc(N6CCOCC6)cc5)ncc4[C@@]4(C)COC(C)(C)C[C@@H]34)nc21 (single isomer, unassigned) [Example 569] | – | – | < 10 | < 100 | –
CNCc1cccc(N2c3nc(Nc4ccc(N5C[C@H]6C[C@@H](C5)O6)cc4)ncc3[C@@]3(C)COC(C)(C)C[C@@H]23)n1 (single isomer, unassigned) [Example 481] | – | – | < 10 | 100 to 1000 | –
CC1(C)C[C@H]2N(c3cccc(N=S(C)(C)=O)n3)c3nc(NC(=O)[C@@H]4C[C@H]4c4ccccc4)ncc3[C@@]2(C)CO1 (single isomer, unassigned) [Example 396] | < 10 | 100 to 1000 | – | – | –
Cc1cc(Nc2ncc3c(n2)N(c2cccc(C(C)(C)O)n2)[C@@H]2CC(C)(C)OC[C@]32C)ccc1C1CCN(C)CC1 (single isomer, unassigned) [Example 8] | < 10 | 100 to 1000 | – | – | –
CCn1ccc(N2c3nc(Nc4ccc(N5CCN(C)CC5)cc4)ncc3[C@@]3(C)COC(C)(C)C[C@@H]23)n1 (single isomer, unassigned) [Example 744] | – | – | < 10 | 1000 to 10000 | –
CC1(C)C[C@H]2N(c3cccc(N4CCOC4=O)n3)c3nc(Nc4ccc(C5CNC5)cc4)ncc3[C@@]2(C)CO1 [Example 666, 3-(6-((4bR,8aR)-2-((4-(azetidin-3-yl)phenyl)amino)-4b,7,7-trimethyl-4b,7,8,8a-tetrahydropyrano[3′,4′:4,5]pyrrolo[2,3-d]pyrimidin-9(5H)-yl)pyridin-2-yl)oxazolidin-2-one] | – | – | < 10 | 100 to 1000 | –
CNCc1cccc(N2c3nc(Nc4ccc(N5CCS(=N)(=O)CC5)cc4)ncc3[C@@]3(C)COC(C)(C)C[C@@H]23)n1 (single isomer, unassigned) [Example 49] | < 10 | 100 to 1000 | – | – | –
CC[C@@]1(O)CCc2ccc(N3c4nc(Nc5ccn(C6CCN(C)CC6)c(=O)c5)ncc4[C@@]4(C)COC(C)(C)C[C@@H]34)nc21 [Example 812, 4-(((4bR,8aR)-9-((R)-7-ethyl-7-hydroxy-6,7-dihydro-5H-cyclopenta[b]pyridin-2-yl)-4b,7,7-trimethyl-4b,5,7,8,8a,9-hexahydropyrano[3′,4′:4,5]pyrrolo[2,3-d]pyrimidin-2-yl)amino)-1-(1-methylpiperidin-4-yl)pyridin-2(1H)-one] | – | – | – | – | IC50 (Wee1 kinase domain; 1 nM Wee1 enzyme, 4 hours at 25° C): < 10 nM; IC50 ([1]; A-427, read-out: A427 pCDC2 MSD IC50): 100 to 1000 nM
C[C@H]1COC(=O)N1c1cccc(N2c3nc(Nc4ccc([C@H]5CCN(C)C5)cc4)ncc3[C@@]3(C)COC(C)(C)C[C@@H]23)n1 (single isomer, unassigned) [Example 306] | < 10 | 100 to 1000 | – | – | –
CNCc1cccc(N2c3nc(Nc4ccc(C(C)(C)C(=O)O)cc4)ncc3[C@@]3(C)COC(C)(C)C[C@@H]23)n1 (single isomer, unassigned) [Example 458] | – | – | < 10 | 1000 to 10000 | –
CNCc1cccc(N2c3nc(Nc4ccc(N5CCOC[C@@H]5C)cc4)ncc3[C@@]3(C)COC(C)(C)C[C@@H]23)n1 (single isomer, unassigned) [Example 476] | – | – | < 10 | 100 to 1000 | –
